In ChEMBL document CHEMBL1201862, “PubChem BioAssay data set” (2004):
Active and inactive are the calls of the source.

Tests used:
Galanin receptor type 3 = Galanin receptor type 3 (Homo sapiens, UniProt O60755); assay: Fluorescence-based cell-based primary high throughput dose response assay to identify antagonists of the Galanin Receptor 3 (GalR3).; format: functional
cells [1] = format: functional, cell-based; conditions: HEK-CNG
[2] = molecular target: T1, Methionyl-tRNA synthetase, putative (Trypanosoma brucei brucei, UniProt Q38C91); format: functional, Trypanosoma brucei brucei strain 927/4 GUTat10.1
T1 sequence (Q38C91 whole entry): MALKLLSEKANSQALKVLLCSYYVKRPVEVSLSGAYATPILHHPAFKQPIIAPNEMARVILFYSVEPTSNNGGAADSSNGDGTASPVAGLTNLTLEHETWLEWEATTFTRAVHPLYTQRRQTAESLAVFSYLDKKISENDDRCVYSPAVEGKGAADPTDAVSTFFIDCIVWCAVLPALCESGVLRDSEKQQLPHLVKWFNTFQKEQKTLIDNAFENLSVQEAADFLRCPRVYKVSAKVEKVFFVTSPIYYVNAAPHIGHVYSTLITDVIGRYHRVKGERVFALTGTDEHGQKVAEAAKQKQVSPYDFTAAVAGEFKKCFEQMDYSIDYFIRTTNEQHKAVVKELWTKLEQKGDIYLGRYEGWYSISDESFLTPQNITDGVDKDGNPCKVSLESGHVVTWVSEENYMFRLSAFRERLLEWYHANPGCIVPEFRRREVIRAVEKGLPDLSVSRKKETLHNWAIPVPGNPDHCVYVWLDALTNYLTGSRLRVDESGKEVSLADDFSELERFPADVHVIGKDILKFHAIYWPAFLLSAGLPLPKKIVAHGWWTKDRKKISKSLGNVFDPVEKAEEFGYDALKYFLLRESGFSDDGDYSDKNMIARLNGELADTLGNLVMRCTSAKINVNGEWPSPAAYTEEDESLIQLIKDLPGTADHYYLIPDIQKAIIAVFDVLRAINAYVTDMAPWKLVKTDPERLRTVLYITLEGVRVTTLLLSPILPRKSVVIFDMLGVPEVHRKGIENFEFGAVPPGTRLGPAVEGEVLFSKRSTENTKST

[3] = Counterscreen for inhibitors of Trypanosoma brucei methionyl tRNA synthetase (MetRS): Luminescence-based cell-based high throughput dose response assay to identify compounds that are cytotoxic to Jurkat human T lymphocyte cells.; format: functional
[4] = molecular target: T1, Methionyl-tRNA synthetase, putative; format: functional, Trypanosoma brucei brucei strain 927/4 GUTat10.1; remark: listed apart in the source
[5] = molecular target: Fructose-bisphosphate aldolase (Mycobacterium tuberculosis, UniProt P9WQA3); assay: Fluorescence-based biochemical high throughput dose response assay for inhibitors of the fructose-bisphosphate aldolase (FBA) of M. tuberculosis.; format: functional
Chain of Fructose-bisphosphate aldolase (P9WQA3 whole entry): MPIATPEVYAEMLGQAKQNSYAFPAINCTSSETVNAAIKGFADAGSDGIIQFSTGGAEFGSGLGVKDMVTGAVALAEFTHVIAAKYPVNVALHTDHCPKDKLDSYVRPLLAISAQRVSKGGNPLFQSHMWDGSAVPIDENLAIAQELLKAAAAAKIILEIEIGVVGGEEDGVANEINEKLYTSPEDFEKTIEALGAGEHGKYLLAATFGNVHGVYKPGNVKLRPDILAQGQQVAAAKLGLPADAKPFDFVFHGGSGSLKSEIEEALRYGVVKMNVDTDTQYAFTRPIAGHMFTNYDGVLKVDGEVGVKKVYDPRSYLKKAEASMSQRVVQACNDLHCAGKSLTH

cells [6] = format: functional, cell-based
[7] = molecular target: T2, Trace amine-associated receptor 1 (Homo sapiens, UniProt Q96RJ0); assay: Fluorescence-based cell-based high throughput dose response assay to identify agonists of the human trace amine associated receptor 1 (TAAR1).; format: functional
T2 sequence (Q96RJ0 whole entry): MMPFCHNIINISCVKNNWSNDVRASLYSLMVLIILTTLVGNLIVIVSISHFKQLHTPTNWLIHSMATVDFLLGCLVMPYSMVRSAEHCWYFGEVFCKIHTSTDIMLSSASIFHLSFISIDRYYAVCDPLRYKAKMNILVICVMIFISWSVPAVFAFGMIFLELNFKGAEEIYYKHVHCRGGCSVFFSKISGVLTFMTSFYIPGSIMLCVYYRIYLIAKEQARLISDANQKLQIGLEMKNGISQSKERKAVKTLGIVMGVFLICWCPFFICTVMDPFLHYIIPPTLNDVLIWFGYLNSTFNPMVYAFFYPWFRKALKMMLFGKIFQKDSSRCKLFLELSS

[8] = molecular target: T2, Trace amine-associated receptor 1; assay: Counterscreen for agonists of the human trace amine associated receptor 1 (hTAAR1): Fluorescence-based cell-based high throughput dose response assay to identify hTAAR1 agonist that also desensitize TAAR1 receptor response.; format: functional
cells [9] = format: functional, cell-based; remark: listed apart in the source
[10] = Luminescence Cell-Based Dose Response to Identify Activators of 5'UTR Stem-Loop Driven Prion Protein mRNA Translation in H4-C Neuroglioblastoma Cells. [Related pubchem assays: 1829 (Project Summary), 1814 (Primary HTS)]; format: functional
[11] = test system: Streptococcus sp. 'group A'; assay: Streptococcus pyogenes SK(-)GAS viability under kanamycin – luminescence, BacTiterGlo, confirmation, counter-screen for streptokinase expression inhibitor project, dose response (AID 1900); format: functional, organism-based
BJ [12] = assay: BJ-TERT fibroblast viability loss – cell-based, RAS-independent, luminescence, dose response (AID 1933); format: functional; conditions: Homo sapiens
H4 = assay: Luminescence Cell-Based Dose Response HTS to Identify Activators of 5'UTR Stem-Loop Driven Prion Protein mRNA Translation in H4 Neuroglioblastoma Cells. [Related pubchem assays: 1829 (Project Summary), 1814 (Primary HTS)]; format: functional; conditions: Homo sapiens
Streptokinase A = molecular target: T3, Streptokinase A (Streptococcus pyogenes serotype M1, UniProt P10520); assay: viability-normalized secreted streptokinase activity reduction – plasminogen activation absorbance, OD405, dose response (AID 1914); format: functional, Streptococcus pyogenes M1 GAS;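 note: secreted streptokinase activity via plasminogen activation per viability signal from cell pellet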
T3 sequence (P10520 whole entry): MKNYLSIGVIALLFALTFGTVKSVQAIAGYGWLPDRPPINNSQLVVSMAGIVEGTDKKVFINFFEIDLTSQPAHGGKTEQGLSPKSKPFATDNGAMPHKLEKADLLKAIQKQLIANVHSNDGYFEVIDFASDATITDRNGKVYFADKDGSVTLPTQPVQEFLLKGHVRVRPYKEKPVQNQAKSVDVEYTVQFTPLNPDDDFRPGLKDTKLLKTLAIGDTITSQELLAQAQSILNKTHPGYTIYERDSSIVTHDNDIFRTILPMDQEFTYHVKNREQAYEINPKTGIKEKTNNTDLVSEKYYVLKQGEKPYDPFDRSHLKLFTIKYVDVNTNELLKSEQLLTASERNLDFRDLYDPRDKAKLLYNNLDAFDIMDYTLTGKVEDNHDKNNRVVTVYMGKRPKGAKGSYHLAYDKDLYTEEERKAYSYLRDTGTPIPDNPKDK

BJ [13] = assay: cells; format: functional, cell-based; conditions: Homo sapiens
[14] = Luminescence Cell-Based Dose Response to Identify Activators of Luciferase Translation or Activity in H4-C Neuroglioblastoma Cells. [Related pubchem assays: 1829 (Project Summary), 1814 (Primary HTS)]; format: functional
Beta-lactamase [15] = molecular target: Beta-lactamase (Pseudomonas aeruginosa, UniProt Q79MP6);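 note: biochemical dose-response test of metallo-beta-lactamase enzyme inhibition, read out by epi-absorbance; purified recombinant IMP-1 metallo-beta-lactamase with nitrocefin as substrate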
Chain of Beta-lactamase (Pseudomonas aeruginosa, UniProt Q79MP6) (Q79MP6 whole entry): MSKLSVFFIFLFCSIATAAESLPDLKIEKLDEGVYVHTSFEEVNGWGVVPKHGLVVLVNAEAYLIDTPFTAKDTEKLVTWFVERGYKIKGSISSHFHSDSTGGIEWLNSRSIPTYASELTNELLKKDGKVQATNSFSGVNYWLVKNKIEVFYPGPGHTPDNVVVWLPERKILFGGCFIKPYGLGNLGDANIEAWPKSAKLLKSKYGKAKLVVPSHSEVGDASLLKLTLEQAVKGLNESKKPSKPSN

[16] = Luminescence Cell-Based Dose Confirmation to Identify Activators of 5'UTR Stem-Loop Driven Alpha-Synuclein mRNA Translation in H4 Neuroglioblastoma Cells. [Related pubchem assays: 1829 (Project Summary), 1814 (Primary HTS)]; format: functional
BJ [17] = assay: BJ-TERT-LT-ST fibroblast viability loss – cell-based, RAS-independent, luminescence, dose response (AID 1935); format: functional; conditions: Homo sapiens;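 note: BJ fibroblasts immortalized with TERT plus LT and ST oncogenes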
Beta-lactamase [18] = molecular target: Beta-lactamase (Salmonella choleraesuis (strain SC-B67), UniProt Q5J463)
Chain of Beta-lactamase (Salmonella choleraesuis (strain SC-B67), UniProt Q5J463) (Q5J463 whole entry): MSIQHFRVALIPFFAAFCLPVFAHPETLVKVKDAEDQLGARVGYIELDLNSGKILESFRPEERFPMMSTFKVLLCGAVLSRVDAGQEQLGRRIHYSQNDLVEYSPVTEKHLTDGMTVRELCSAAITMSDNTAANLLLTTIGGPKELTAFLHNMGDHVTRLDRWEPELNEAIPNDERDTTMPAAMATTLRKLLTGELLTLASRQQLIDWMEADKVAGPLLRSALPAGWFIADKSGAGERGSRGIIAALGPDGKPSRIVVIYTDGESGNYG

[19] = DRD fibroblast viability loss – cell-based, non-viral oncogenic, luminescence, dose response (AID 1934); format: functional; conditions: Homo sapiens
Streptococcus = assay: GAS UMAA2166 growth inhibition – luminescence, BacTiterGlo, counter-screen for streptokinase expression inhibitor project, dose response (AID 1915); format: functional, organism-based;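 note: potency for reduction of bacterial viability or growth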
BJ [20] = assay: growth inhibition of engineered Ras-driven BJ cells – cell-based, alamar blue fluorescence, cherrypicked samples, dose response (AID 2631); format: functional; conditions: Homo sapiens;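 note: confirmatory dose-response assay in RAS-dependent BJ fibroblasts engineered with TERT, LT and ST, with cytotoxicity read by fluorescence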

Chain of Galanin receptor type 3 (O60755 whole entry): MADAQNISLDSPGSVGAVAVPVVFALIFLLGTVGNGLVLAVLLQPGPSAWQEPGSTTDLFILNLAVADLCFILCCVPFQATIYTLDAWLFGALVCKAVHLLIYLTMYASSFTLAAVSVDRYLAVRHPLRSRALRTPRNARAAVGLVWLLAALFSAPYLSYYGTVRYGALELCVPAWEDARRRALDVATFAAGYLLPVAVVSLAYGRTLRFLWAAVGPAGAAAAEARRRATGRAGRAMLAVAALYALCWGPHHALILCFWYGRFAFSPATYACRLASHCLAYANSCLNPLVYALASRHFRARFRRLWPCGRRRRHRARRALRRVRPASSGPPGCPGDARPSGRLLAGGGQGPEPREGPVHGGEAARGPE

In the case of CN(Cc1ccc2c(c1)CCCN2C)C(=O)[C@H]1O[C@@H](n2cnc3c(N)ncnc32)[C@H](O)[C@@H]1O, the IC50 (Galanin receptor type 3) is reported as 3.97 µM (active) and the EC50 (cells [1]) is reported as > 29.9 µM (inactive).

For CS(=O)(=O)c1ccc(Cl)c(NC(=O)c2ccc(-n3cncn3)c([N+](=O)[O-])c2)c1, the IC50 [2] was 7.04 µM (active), the IC50 [3] was 83.3 µM (inactive) and the IC50 [4] was 2.13 µM (active).

For Cc1nn(-c2ccccc2)c(O)c1/C=N/c1cnc2ccccc2c1, the IC50 [5] was > 3.33 µM (active).

In the case of OCCNc1nc(Nc2ccccc2)nc2ccccc12, the IC50 (cells [6]) is reported as > 29.9 µM (inactive), the EC50 [7] is reported as 0.0634 µM (active) and the IC50 [8] is reported as 0.2 µM (active). The EC50 (cells [9]) was > 29.9 µM (inactive).

With CCC(/C=C1\Sc2ccc3ccccc3c2N1C)=C\c1sc2ccc3ccccc3c2[n+]1C the EC50 [10] was > 12 µM (not active), the EC50 [11] was 3.13 µM (active) and the EC50 (BJ [12]) was 0.164 µM (active). The EC50 (H4) was > 120 µM (not active), the EC50 (Streptokinase A) was > 150 µM (not active) and the EC50 (BJ [13]) was 0.352 µM (inconclusive). The EC50 [14] was > 12 µM (not active), the IC50 (Beta-lactamase [15]) was > 59.6 µM (inactive) and the EC50 [16] was 3.46 µM (inconclusive). For the same compound, the EC50 (BJ [17]) was 0.343 µM (inconclusive), the IC50 (Beta-lactamase [18]) was > 59.6 µM (inactive) and the EC50 [19] was 0.395 µM (active). For the same compound, the EC50 (Streptococcus) was 15.5 µM (active) and the EC50 (BJ [20]) was < 0.104 µM (active).
